Consider five compounds from patent US5126373A, “Composition for parenteral and oral nutrition” (priority 1987, dated 1992).

The structures appear in SMILES notation.

Data set [1] is described as follows: Blood glucose levels in unanesthetized young pigs. In kind it is in vivo, pig. The conditions noted are these: intravenous infusion 3 h or intragastric bolus. An excerpt: (§1) The pigs were given equicaloric amount of either:
The nature of data set [2]: RS-butanediol concentration in blood of pigs. In kind it is in vivo, pig.
From the text: as §1

The nature of data set [3]: Volume of distribution of butanediol. The format is in vivo. The text has this:
In other experiments, the volume of distribution of butanediol is equal to 2/3 of the body wt, i.e. total body water.

Data set [4] in a line: Noted metabolism of esters compared with butanediol alone. The format is in vivo. The following applies: compared with physiological oxido-reduction ratio.
The subject of data set [5] is ketone bodies (R-3-hydroxybutyrate+S-3-hydroxybutyrate+acetoacetate). Kind of data set: Total ketone body concentrations in pigs. The format is in vivo, pig. The method, then: as §1
The total concentration of physiological and unphysiological ketone bodies (R-3-hydroxybutyrate+S-3-hydroxybutyrate+acetoacetate) never exceeded 0.8 mM in the animal receiving RS-butanediol by the continuous intravenous route. […] Therefore, there was no marked acidosis in any of the groups.

The test system of data set [6] is ethanol withdrawal syndrome. The conditions noted are these: rats; cited from earlier work.
For data set [7] the following is noted: cited from earlier work.
In data set [8] the test system is mitochondrial [NADH]/[NAD^+ ]. Kind of data set: Redox parameters in blood of pigs. The format is in vivo, pig. The following applies: reflects the mitochondrial [NADH]/[NAD^+ ].
From the text: as §1

Data set [9] can be described thus: Preliminary results with 1,3-pentanediol and its esters. The following applies: liver.
In another data set the test system is [NADH]/[NAD^+ ]. The following applies: inhibition of gluconeogenesis and alcoholic hypoglycemia; cited from earlier work.
The test system of the next data set is alloxan-diabetic rats. The following applies: cited from earlier work.
The test system of the next data set is mammalian cells. The conditions noted are these: cited from earlier work.

Consider `CC(O)CCO` (racemic) [RS-butanediol, 1,3-butanediol], for which the “Glucose levels / hypoglycemic effect” value in data set [1] is on record as “do not exert a hypoglycemic effect”. Besides, in data set [2] (after intragastric bolus), the “linear decrease of butanediol concentration in blood, time” value turned out to be 4 h. Moreover, the concentration at 3 h in [2] (pig, blood, constant intravenous infusion for 3 h, 25% of hourly caloric requirement, read-out: RS-butanediol (free butanediol) concentration) amounted to 600 µM. Besides, the Cmax in [2] (pig, blood, intragastric bolus, 15% of daily caloric requirements, read-out: concentration of butanediol in the blood, peak) was determined as 25000 µM. Further, the osmotic effect result in data set [3] (butanediol liberated in blood from plasma esterases) is “does not exert any osmotic effect”. Further, the “rate of distribution into total body water” value in data set [3] (compared with a tracer of water) is “at the same rate as a tracer of water”. Also, in data set [3] (i.e. total body water), the volume of distribution is listed as 2/3. The “3-hydroxybutyrate and acetoacetate ratio after metabolism in the liver” value in data set [4] was “more reduced than physiological”. Further, the “total concentration of ketone bodies” value in data set [5] (continuous intravenous infusion) was no more than 0.8 mM. For the same compound, in [5] (intragastric bolus), the “total ketone body concentration” value is “about 1.5 mM”. Moreover, in data set [6], the “effect on ethanol withdrawal syndrome” value is “alleviates the ethanol withdrawal syndrome in rats”. In addition, in data set [7] (diet containing 5%, humans), the adverse effect entry is reported as “no adverse effect” and the nitrogen sparing entry is “nitrogen was spared”. In data set [7] (via alcohol and aldehyde dehydrogenase), the “metabolism in the liver” value is “metabolised in the liver to DL-3-hydroxybutyrate”. For the same compound, the “[R-3-hydroxybutyrate]/[acetoacetate] ratio” value in data set [8] is recorded as “increased”.

Take `CCC(O)CCO` (racemic) [RS-1,3-pentanediol]: the “gluconeogenic and ketogenic substrate” value in [9] is “is a gluconeogenic and a ketogenic substrate”.

In the case of `CCO` [ethanol], the redox shift entry in [NADH]/[NAD^+ ] was “an increase in [NADH]/[NAD^+ ]”.

In the case of `C[C@H](O)CC(=O)O` [L-β-hydroxybutyrate], the antidiabetic properties entry with alloxan-diabetic rats (test not stated) is “has demonstrated interesting antidiabetic properties”. Further, the “use by mammalian cells” value with mammalian cells is recorded as “very well used by mammalian cells”.

For `C[C@H](O)CCO` [L-1,3-butanediol], the blood glucose level entry with alloxan-diabetic rats (alloxan-diabetic rats) is given as “useful in reducing the blood glucose level”.
